Measurements taken from ChEMBL document CHEMBL1154782, “Discovery of Trp-His and His-Arg analogues as new structural classes of short antimicrobial peptides” (J Med Chem, 2009).
In brackets after ≈: the same amount, converted by molar mass.

Key:
[1] = tested on: Staphylococcus aureus; test: Antibacterial activity against methicillin-resistant Staphylococcus aureus DSM 50128509 after 15 to 18 hrs under aerobic condition by modified broth microdilution method; format: functional
[2] = tested on: Staphylococcus aureus; test: Antibacterial activity against methicillin-resistant Staphylococcus aureus DSM 50128509; format: functional, organism-based
[3] = tested on: Staphylococcus epidermidis; test: Antibacterial activity against methicillin-resistant Staphylococcus epidermidis DSM 50160384 after 15 to 18 hrs under aerobic condition by modified broth microdilution method; format: functional
[4] = tested on: Staphylococcus epidermidis; test: Antibacterial activity against methicillin-resistant Staphylococcus epidermidis DSM 50160384; format: functional, organism-based
[5] = tested on: Escherichia coli; test: Antibacterial activity against Escherichia coli ATCC 35218 after 15 to 18 hrs under aerobic condition by modified broth microdilution method; format: functional
[6] = tested on: Escherichia coli; test: Antibacterial activity against Escherichia coli ATCC 35218; format: functional, organism-based
[7] = tested on: Klebsiella pneumoniae; test: Antibacterial activity against Klebsiella pneumoniae ATCC 700603 after 15 to 18 hrs under aerobic condition by modified broth microdilution method; format: functional
[8] = tested on: Pseudomonas aeruginosa; test: Antibacterial activity against Pseudomonas aeruginosa ATCC 9027 after 15 to 18 hrs under aerobic condition by modified broth microdilution method; format: functional
[9] = tested on: Candida albicans; test: Antifungal activity against Candida albicans ATCC 10231 after 15 to 18 hrs under aerobic condition by modified broth microdilution method; format: functional
[10] = tested on: Candida albicans; test: Antifungal activity against Candida albicans ATCC 10231; format: functional, organism-based
[11] = tested on: L929; test: Cytotoxicity against mouse L929 cells up to 200 ug/mL after 5 days by MTT assay; format: cell-based; conditions: l929, 120 h
[12] = tested on: Pseudomonas aeruginosa; test: Antibacterial activity against Pseudomonas aeruginosa ATCC 9027; format: functional, organism-based
[13] = tested on: Klebsiella pneumoniae; test: Antibacterial activity against Klebsiella pneumoniae ATCC 700603; format: functional, organism-based

| Structure (SMILES) | MIC [1] [µg/mL] | IC50 [2] [µg/mL] | MIC [3] [µg/mL] | IC50 [4] [µg/mL] | MIC [5] [µg/mL] | IC50 [6] [µg/mL] | MIC [7] [µg/mL] | MIC [8] [µg/mL] | MIC [9] [µg/mL] | IC50 [10] [µg/mL] | Activity [11] | IC50 [12] [µg/mL] | IC50 [13] [µg/mL] |
| --- | --- | --- | --- | --- | --- | --- | --- | --- | --- | --- | --- | --- | --- |
| COC(=O)[C@H](Cc1c[nH]c(C2CCCCC2)n1)NC(=O)[C@H](Cc1c[nH]c2ccccc12)NC(=O)OC(C)(C)C | 200 (≈ 372 µM) | 14 (≈ 26 µM) | 50 (≈ 93 µM) | 6.29 (≈ 11.7 µM) | 200 (≈ 372 µM) | 20.9 (≈ 38.8 µM) | > 200 | > 200 | 200 (≈ 372 µM) | 17.7 (≈ 32.9 µM) | Non-toxic |  |  |
| CC(C)c1nc(C[C@H](NC(=O)OC(C)(C)C)C(=O)N[C@@H](CCCNC(=N)N)C(=O)NCc2ccccc2)c[nH]1 | 100 (≈ 184 µM) | 17.9 (≈ 33.1 µM) | 100 (≈ 184 µM) | 12.7 (≈ 23.3 µM) | 200 (≈ 369 µM) | 23.7 (≈ 43.7 µM) | > 200 | 200 (≈ 369 µM) | > 200 |  | Non-toxic | 45.1 (≈ 83.2 µM) |  |
| COC(=O)[C@H](Cc1c[nH]c(C23CC4CC(CC(C4)C2)C3)n1)NC(=O)[C@H](Cc1c[nH]c2ccccc12)NC(=O)OC(C)(C)C | 20 (≈ 33.9 µM) | 1.69 (≈ 2.87 µM) | 50 (≈ 84.8 µM) | 4.03 (≈ 6.83 µM) | 100 (≈ 170 µM) | 6.59 (≈ 11.2 µM) | > 200 | > 200 | 200 (≈ 339 µM) | 26.6 (≈ 45.1 µM) | Non-toxic |  |  |
| N[C@@H](Cc1c[nH]c2ccccc12)C(=O)N[C@@H](Cc1c[nH]c(C2CCC2)n1)C(=O)NCc1ccccc1 | 100 (≈ 206 µM) | 27.1 (≈ 55.9 µM) | 50 (≈ 103 µM) | 8.51 (≈ 17.6 µM) | 200 (≈ 413 µM) | 22.5 (≈ 46.4 µM) | > 200 | > 200 | 100 (≈ 206 µM) | 10.3 (≈ 21.3 µM) | Non-toxic |  |  |
| N[C@@H](Cc1c[nH]c2ccccc12)C(=O)N[C@@H](Cc1c[nH]c(C23CC4CC(CC(C4)C2)C3)n1)C(=O)NCc1ccccc1 | 100 (≈ 177 µM) | 16 (≈ 28.3 µM) | 50 (≈ 88.5 µM) | 4.7 (≈ 8.32 µM) | 200 (≈ 354 µM) | 21.3 (≈ 37.8 µM) | 200 (≈ 354 µM) | > 200 | 50 (≈ 88.5 µM) | 8.25 (≈ 14.6 µM) | Non-toxic |  | 32 (≈ 56.6 µM) |
| CC(C)(C)OC(=O)N[C@@H](Cc1c[nH]c(C23CC4CC(CC(C4)C2)C3)n1)C(=O)N[C@@H](CCCNC(=N)N)C(=O)NCc1ccccc1 | 20 (≈ 31.5 µM) | 7.47 (≈ 11.8 µM) | 100 (≈ 158 µM) | 11.5 (≈ 18.1 µM) | > 200 |  | 100 (≈ 158 µM) | 100 (≈ 158 µM) | > 200 |  | Non-toxic | 27.2 (≈ 42.9 µM) | 15.1 (≈ 23.8 µM) |
| COC(=O)[C@H](CCCNC(=N)N)NC(=O)[C@H](Cc1c[nH]c(C2CCC2)n1)NC(=O)OC(C)(C)C | > 200 |  | > 200 |  | 200 (≈ 417 µM) | 18.1 (≈ 37.8 µM) | 200 (≈ 417 µM) | > 200 | > 200 |  | Non-toxic |  | 15 (≈ 31.2 µM) |
| CC(C)(C)OC(=O)N[C@@H](Cc1c[nH]c(C2CCC2)n1)C(=O)N[C@@H](CCCNC(=N)N)C(=O)NCc1ccccc1 | > 200 |  | 200 (≈ 361 µM) | 19.3 (≈ 34.8 µM) | > 200 |  | 200 (≈ 361 µM) | > 200 | > 200 |  | Non-toxic |  | 20.8 (≈ 37.5 µM) |
| CC(C)c1nc(C[C@H](N)C(=O)N[C@@H](CCCNC(=N)N)C(=O)NCc2ccccc2)c[nH]1 | 100 (≈ 226 µM) | 4.85 (≈ 11 µM) | 200 (≈ 452 µM) | 12.8 (≈ 28.8 µM) | > 200 |  | > 200 | 200 (≈ 452 µM) | > 200 |  | Non-toxic | 27.8 (≈ 62.7 µM) |  |
| N=C(N)NCCC[C@H](NC(=O)[C@@H](N)Cc1c[nH]c(C23CC4CC(CC(C4)C2)C3)n1)C(=O)NCc1ccccc1 | 5 (≈ 9.35 µM) | 2.15 (≈ 4.02 µM) | 10 (≈ 18.7 µM) | 1.19 (≈ 2.23 µM) | 200 (≈ 374 µM) | 9.29 (≈ 17.4 µM) | 100 (≈ 187 µM) | > 200 | 50 (≈ 93.5 µM) | 7.46 (≈ 14 µM) | Non-toxic |  | 16.1 (≈ 30.2 µM) |
| COC(=O)[C@H](CCCNC(=N)N)NC(=O)[C@@H](N)Cc1c[nH]c(C23CC4CC(CC(C4)C2)C3)n1 | 10 (≈ 21.8 µM) | 3.67 (≈ 7.99 µM) | 20 (≈ 43.5 µM) | 4.28 (≈ 9.31 µM) | > 200 |  | 200 (≈ 435 µM) | 200 (≈ 435 µM) | > 200 |  | Non-toxic | 35.5 (≈ 77.2 µM) | 19.4 (≈ 42.2 µM) |
| N[C@@H](Cc1c[nH]c2ccccc12)C(=O)N[C@@H](Cc1c[nH]c(C2CCCCC2)n1)C(=O)NCc1ccccc1 | 10 (≈ 19.5 µM) | 4.8 (≈ 9.36 µM) | 50 (≈ 97.5 µM) | 7.54 (≈ 14.7 µM) | > 200 |  | 50 (≈ 97.5 µM) | > 200 | 100 (≈ 195 µM) | 8.41 (≈ 16.4 µM) | Non-toxic |  | 17.4 (≈ 33.9 µM) |
